According to patent publication US10479814B2, “Adenosine receptor activation reagent and the uses of thereof” (Zhejiang Subtropical Crops Research Institute, priority 2014, dated 2019):
Entries after “also recorded” stand apart in the source; their conditions may differ.

Assays:
[1] = tested on: rat middle cerebral artery distal obstruction cerebral ischemia model; assay: dMCAO cerebral ischemia: neurologic function score; assay type: in vivo
Protocol: Using rat middle cerebral artery distal obstruction cerebral ischemia model. (1) according to rat weight, 10% chloral hydrate (3 ml/kg) was peritoneally injected to anaesthetize. […]
3.3.1 the neurologic function score of the animal in conscious were scored for the rat behaviour according to the Neurological Defects 4 Score in 5 Grade Method by Longa E Z et al ^[4] : 0 point: no significant neurologic function impairment; 1 point: unable to stretch forelimbs on opposite sides; 2 point: rolling to the opposite side when walking; 3 point: duping to the opposite side when walking; 4 point: unable to spontaneously walk, and loss of consciousness.

[2] = tested on: pain writhing response induced by 0.7% acetic acid; assay: acetic acid writhing method (analgesia); assay type: in vivo, mouse; conditions: for effect of A1 antagonist on analgesic effect of the HEA: DPCPX 1 mg/kg ip 10 minutes before HEA 15 mg/kg
Protocol: Clean male Kunming mice, weight 18-22 g, selecting adenosine AiR antagonist DPCPX. The mice were divided into solvent group, HEA (15 mg/kg) group, DPCPX (1 mg/kg) and DPCPX+HEA (1 mg/kg+15 mg/kg) group; wherein in DPCPX+HEA group, the mouse was peritoneally injected with antagonist, after 10 minutes, the HEA was peritonealy injected. Using writhing method, the treatment dose was given, after 30-40 minutes, 0.7% acetic acid was peritoneally injected, and writhing number of the white mouse within 15 minutes was recorded, calculating the reduction number of pain writhing response induced by 0.7% acetic acid by the HEA.

[3] = tested on: mouse kidney ischemia reperfusion; assay: kidney ischemia reperfusion: electron microscope observation of renal tubular epithelial cells; assay type: in vivo
Protocol: Male C57BL/6 mice 20-25 g, after one week of adaptive feeding to the animals, were randomly divided into eight groups: sham-operation group, IR group, HEA 5 mg/kg group, HEA 7 mg/kg group, HEA 10 mg/kg group, DPCPX (1 mg/kg) group, DPCPX (1 mg/kg)+HEA (5 mg/kg) group and DPCPX (1 mg/kg)+HEA (7.5 mg/kg) group. The mouse was weighed before operation, then peritoneally injected with pentobarbital sodium 50 mg/kg to anaesthetize the mouse, abdomen was opened by ventromedial incision, blunt dissection and the kidney pedicle was sufficiently exposed, renal ischemia was induced by clapping two side kidney pedicle with non-invasive bulldog clamp, the color of kidney change from bright red to purple black immediately, determination method of success of the experiment model can refer to the methods in literature 7 and 8. At time of 30 min of ischemia the bulldog clamp was loosened, the perfuse was restored, the color of kidney changed gradually from dark red to bright red, showing re perfusion was successful. The wound was stitched. The animals were freely fed water and food. In the sham-operation group, the mice only received operation of abdomen open, kidney pedicle and abdomen suture. The kidney IR mode were made for the mice in the remaining groups. In each drug group, before 15 minute of ischemia, the drug with corresponding concentration was speritoneally injected, in drug combination group, 15 minutes before ischemia, the drugs were given simultaneously. The section was observed using Transmission Electron Microscope ([…], from Hitachi Co. limited). The observation was conducted in Electron Microscoper Room of Wenzhou Medical University.

[4] = tested on: myeloperoxidase (MPO) activity in mouse renal cortex; assay: kidney ischemia reperfusion: MPO analysis; assay type: in vivo; conditions: vs IR group, P<0.05; HEA 5 and 7.5 mg/kg; DPCPX 1 mg/kg; DPCPX 1 mg/kg+HEA 5 mg/kg
Protocol: Male C57BL/6 mice 20-25 g, after one week of adaptive feeding to the animals, were randomly divided into eight groups: sham-operation group, IR group, HEA 5 mg/kg group, HEA 7 mg/kg group, HEA 10 mg/kg group, DPCPX (1 mg/kg) group, DPCPX (1 mg/kg)+HEA (5 mg/kg) group and DPCPX (1 mg/kg)+HEA (7.5 mg/kg) group. The mouse was weighed before operation, then peritoneally injected with pentobarbital sodium 50 mg/kg to anaesthetize the mouse, abdomen was opened by ventromedial incision, blunt dissection and the kidney pedicle was sufficiently exposed, renal ischemia was induced by clapping two side kidney pedicle with non-invasive bulldog clamp, the color of kidney change from bright red to purple black immediately, determination method of success of the experiment model can refer to the methods in literature 7 and 8. At time of 30 min of ischemia the bulldog clamp was loosened, the perfuse was restored, the color of kidney changed gradually from dark red to bright red, showing re perfusion was successful. The wound was stitched. The animals were freely fed water and food. In the sham-operation group, the mice only received operation of abdomen open, kidney pedicle and abdomen suture. […] 9.2.6 Real time quantitative PCR analysis of gene expression of ICAM-1, TNF-α and IL-1β; the sequence of primer used in RT-PCR reaction system is as follow: […]

Row | SMILES | antagonism of the protective effects of HEA in dMCAO ([1]; HEA 7.5 mg/kg + DPCPX 1 mg/kg ip, all dMCAO readouts) | effect of A1 antagonist on analgesic effect of the HEA [2] | effect of A1 antagonist on analgesic effect of the HEA ([2]; listed as adenosine A1 receptor antagonist) | renal tubular epithelial cell ultrastructure (electron microscope) ([3]; DPCPX 1 mg/kg alone or DPCPX 1 mg/kg+HEA 5 or 7.5 mg/kg before ischemia) | myeloperoxidase (MPO) activity in renal cortex [4] | neurologic function score ([1]; dMCAO rat, HEA 5, 7.5, 12 mg/kg ip (7.5 mg/kg) 30 min before operation, vs model group) | writhing number ([2]; HEA 15 mg/kg ip, 0.7% acetic acid, within 15 minutes, vs solvent group) | renal tubular epithelial cell ultrastructure (electron microscope) ([3]; HEA 5 mg/kg group) | renal tubular epithelial cell ultrastructure (electron microscope) ([3]; HEA 7.5 mg/kg group) | renal tubular epithelial cell ultrastructure (electron microscope) ([3]; HEA 10 mg/kg group)
1 | CCCn1c(=O)c2[nH]c(C3CCCC3)nc2n(CCC)c1=O [DPCPX, reference compound] | may be antagonized | analgesic effect of the HEA is significantly antagonized | analgesic effect was reduced | essentially no mitochondria with complete structure | significantly increase MPO activity | – | – | – | – | –
2 | OCCNc1ncnc2c1ncn2[C@@H]1O[C@H](CO)[C@@H](O)[C@H]1O [HEA, N(6)-(2-hydroxyethyl)-adenosine] | – | – | – | – | significantly reduced | significantly improve neurological symptom of dMCAO rat; also recorded: significantly improve neurological function of the injured brain | significantly reduced the writhing number; also recorded: significantly reduce writhing number | the entirety is improved compared with ischemia reperfusion group | most of the mitochondria are normal | mitochondria protection is more clear than the IR group
